Measurements published in patent US9394544B2, “Ameliorating oxidative stress in neurodegenerative disease via Nox1 targeting” (University of Central Florida Research Foundation, Inc., priority 2013, dated 2016).

Legend:
[1] = system: Flag-tagged wild-type (WT) α-synuclein; assay: Aggregation of overexpressed flag-tagged WT α-synuclein in N27 cells exposed to PQ; type: cell-based, rat
Experimental: Human α-synuclein was cloned into the p3xFLAG-myc-CMV-23 expression vector (Sigma) for N- and C-terminal tagging with FLAG and Myc, respectively. For transient overexpression of tagged α-synuclein, N27 cells were plated onto 24-well plates with coverslips at 0.5×10^5 cells per well 1 d before transfection. The next day, cells were transiently transfected with FLAG-WTsyn-myc. Briefly, 1 μg of plasmid DNA was mixed with 6 μl of Lipofectamine 2000 (Invitrogen) in 100 μl of Opti-MEM for 20 min before addition in the culture. After 6 h of incubation, the culture medium was changed and 100 μl of Nox1 shRNA/LVX viral particle was added to each well. Cells were maintained for an additional 36 h before treatment with 800 μM or 1000 μM PQ for 8 and 24 h.
After each respective treatment, cells were fixed in 4% paraformaldehyde (PFA) for 20 min and permeabilized with 0.1% Triton X-100 in PBS for 10 min. Blocking was performed by incubation with 20% goat or donkey serum in PBS containing 0.1% Tween 20 for 90 min at room temperature. […] For quantification of Flag^+ and α-synuclein^+ cells, >30 different fields per coverslip were analyzed on a Nikon inverted fluorescent microscope under a 20× and 40× magnification.

Nox1 = Nox1 immunostaining in rat SN after striatal 6-OHDA; type: in vivo
Experimental: (§1) The experiments were carried out on rats, in accordance with the NIH Guide for the Care and Use of Laboratory Animals. All procedures were approved by the local Animal Care and Use Committee. Female Sprague Dawley (SD) rats (Charles River; 8-weeks-old at the time of the beginning of AAV expression or 6-OHDA treatment, 2 or 3 per cage) were maintained in a temperature/humidity-controlled environment under a 12 h light/dark cycle with free access to food and water. All rats were respectively allocated into […], Nox1 shRNA/AAV, T17N Rac1/AAV, and scramble (scb) shRNA/AAV or empty vector/AAV as control groups. […]
Free-floating sections (40 μm) were washed in 0.1 M PBS, incubated in 0.1 M PBS containing 5% normal donkey serum and 0.3% TritonX-100 for 1 h, and subsequently incubated overnight with primary antibodies (TH, 1:2,000; Nox1, 1:200; GFAP, 1:500; CD11b, 1:200) in 2% normal donkey serum in PBS at 4° C. and incubated in a 1:200 dilution of AlexaFluor conjugated donkey anti-rabbit (546) or donkey anti-mouse (488) antibodies for 1 h at room temperature, washed with PBS, incubated in TOTO-3 (1:1,000) in 0.1 M PBS for 5 min, and then mounted sequentially in glass slides using Vectashield. Mounted slices were evaluated for fluorescence under settings for 546, 488, and 660 nm emissions on a confocal microscope (Leica TCS SP5).

SN DA neurons = assay: Stereologic counting of TH-immunostained DA neurons in the SN, 6-OHDA rat model; type: in vivo; settings: direct injection into the rat SN, in 2 weeks
Experimental: as §1, with “groups. Rats were deeply anesthetized (ketamine and xylazine mixture 30 mg/kg, i.p.) and placed in a rat stereotaxic apparatus, a site in the right substantia nigra (SN) [coordinate: anteroposterior (AP), −5.3 mm; mediolateral (ML), +2.0 mm; dorsoventral (DV), −5.8 mm] was selected to inject scb shRNA/AAV (n=8), Nox1 shRNA/AAV (n=16), T17N Rac1/AAV (n=16), and empty vector/AAV (n=28), respectively, according to the grouping.” for “groups.”
A set consisting of six sections, 360 μm apart, were prepared. […] Numbers of TH-immunoreactive cells in the substantia nigra (SN) were counted using the optical fractionator (West 1990). […] The coefficient of error and coefficient of variation were also determined.

SMILES	increase of flag-tagged WT α-synuclein aggregation vs control cells [1] [fold]	Nox1 expression in the substantia nigra vs vehicle (Nox1; 3 days after striatal injection)	TH-positive neurons showing Nox1 nuclear staining (Nox1; rat SN after 6-OHDA administration)	loss of TH-positive SNDA neurons (SN DA neurons)
C[n+]1ccc(-c2cc[n+](C)cc2)cc1 [PQ, paraquat]	2.5	–	–	–
NCCc1cc(O)c(O)cc1O [6-OHDA, 6-hydroxydopamine]	–	significant increase	About 75%	90%-95%
